# According to the supplement of paper PMC10331698:
# ± gives the standard deviation of the averaged measurements.
# Experiments:
# Experiment in all cases: LOEC (log10 uM (lowest observed effect concentration))
# [1] = compound: O=S(=O)(Cl)C(F)(F)C(F)(F)C(F)(F)C(F)(F)C(F)(F)C(F)(F)C(F)(F)C(F)(F)F [Perfluoro-1-octanesulfonyl chloride]
# Description: (§1)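 BioMAP Diversity Plus panel in human primary cell co-cultures, 4 concentrations in duplicate blinded samples. Responses are log10 fold change versus DMSO control, processed with tcpl v2.1.0. A hit is called when responses at any concentration exceed the cutoff (the larger of 3*bmad or log10(1.2)); the lowest observed effect concentration (modl_ga, log10 uM) is reported for hits.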
# [2] = compound: C=CC(=O)OCC(F)(F)C(F)(F)C(F)(F)COC(=O)C=C [1H,1H,5H,5H-Perfluoro-1,5-pentanediol diacrylate]
# Description: as §1
# [3] = compound: NS(=O)(=O)C(F)(F)C(F)(F)C(F)(F)C(F)(F)C(F)(F)C(F)(F)F [Perfluorohexanesulfonamide]
# Description: as §1
# [4] = compound: O=C(O)C(F)(F)C(F)(F)C(F)(F)C(F)(F)C(F)(F)C(F)(F)C(F)(F)C(F)(F)C(F)(F)C(F)F [11-H-Perfluoroundecanoic acid]
# Description: as §1
# Nonafluoropentanamide = compound: NC(=O)C(F)(F)C(F)(F)C(F)(F)C(F)(F)F [Nonafluoropentanamide]
# Description: as §1
# [5] = compound: COC(=O)C(F)(F)C(F)(F)OC(F)(C(F)(F)F)C(F)(F)OC(F)=C(F)F [Methyl perfluoro(3-(1-ethenyloxypropan-2-yloxy)propanoate)]
# Description: as §1
# [6] = compound: O=S(=O)(O)CCC(F)(F)C(F)(F)C(F)(F)C(F)(F)C(F)(F)C(F)(F)F [6:2 Fluorotelomer sulfonic acid]
# Description: as §1
# [7] = compound: FC(F)(F)C(F)(F)C(F)(F)C(F)(F)C(F)(F)C(F)(F)C(F)(F)I [1-Iodopentadecafluoroheptane]
# Description: as §1
Test System,LOEC (log10 uM) [1],LOEC (log10 uM) [2],LOEC (log10 uM) [3],LOEC (log10 uM) [4],other results
3C Eselectin up,1.78,–,–,–,–
3C HLADR down,–,1.07 ± 0.32,1.78,–,–
3C IL8 up,1.78,–,–,–,–
3C MCP1 down,–,1.3,–,1.78,–
3C Proliferation down,–,0.301,1.78,1.78,–
3C SRB down,1.78,1.3,1.78,1.78,–
3C Thrombomodulin down,–,–,–,–,LOEC (log10 uM) (Nonafluoropentanamide): 1.31 ± 0.66
3C Thrombomodulin up,1.78,1.3,–,1.78,–
3C uPAR down,1.78,1.78,–,–,–
4H Eotaxin3 down,–,0.845,1.78,1.78,–
4H SRB down,–,1.3,1.78,1.78,–
4H VCAM1 down,–,1.3,–,1.78,–
BE3C EGFR down,1.78,–,–,1.3,–
BE3C HLADR down,1.78,1.3,–,1.3,–
BE3C ICAM1 down,1.78,1.3,–,1.3,–
BE3C IL1a down,1.78,1.3,–,1.3,–
BE3C IL8 down,1.78,1.3,1.3,–,–
BE3C IP10 down,1.3,1.54 ± 0.34,1.54 ± 0.34,0.845,–
BE3C ITAC down,1.78,1.78,–,1.3,LOEC (log10 uM) [5]: 0.845
BE3C MIG down,1.78,1.78,–,1.3,–
BE3C MMP1 up,–,–,1.78,–,LOEC (log10 uM) [5]: 0.573 ± 0.39
BE3C MMP9 down,1.78,1.3,1.78,1.07 ± 0.32,–
BE3C PAI1 down,1.78,–,1.54 ± 0.34,1.3,–
BE3C SRB down,1.78,–,–,1.3,–
BE3C tPA down,1.78,1.3,1.78,1.3,LOEC (log10 uM) [5]: 0.0731 ± 0.32
BE3C uPA down,1.78,1.78,–,1.3,–

Test System,LOEC (log10 uM) [1],LOEC (log10 uM) [2],LOEC (log10 uM) [3],LOEC (log10 uM) [4],other results
BE3C uPAR down,1.78,1.78,1.78,1.3,–
BF4T Eotaxin3 down,1.78,1.78,–,0.801 ± 0.71,–
BF4T ICAM1 down,1.78,1.07 ± 0.32,–,1.3,–
BF4T IL1a down,1.78,1.78,–,1.54 ± 0.34,–
BF4T Keratin818 down,–,1.78,–,1.78,–
BF4T MCP1 down,1.78,1.3,1.78,0.573 ± 0.39,–
BF4T MMP3 down,–,–,–,1.78,–
BF4T MMP3 up,–,–,–,–,LOEC (log10 uM) [5]: 0.845
BF4T MMP9 down,1.78,1.3,–,1.3,–
BF4T PAI1 down,1.78,1.3,–,0.801 ± 0.71,–
BF4T SRB down,1.78,1.78,–,1.3,–
BF4T VCAM1 down,–,1.3,1.54 ± 0.34,–,–
BF4T tPA down,1.54 ± 0.34,1.3,–,0.845,–
BF4T uPA down,1.78,1.78,–,1.78,–
BT Bcell Proliferation up,1.78,–,–,–,–
BT PBMCCytotoxicity up,1.78,–,–,1.78,–
IMphg CD40 down,–,1.3,1.78,–,–
IMphg CD69 down,–,1.78,1.78,–,–
IMphg ESelectin down,–,1.3,1.78,–,–
IMphg IL1a up,–,–,1.54 ± 0.34,–,LOEC (log10 uM) [5]: 0.845
IMphg IL8 up,–,–,1.78,–,LOEC (log10 uM) [5]: 0.301
IMphg IL10 down,1.78,1.3,1.78,1.78,–
IMphg MCP1 down,–,1.3,1.78,1.78,–
IMphg MCSF down,–,–,1.07 ± 0.32,–,–
IMphg SRB down,–,–,–,1.78,–
IMphg SRB.Mphg down,–,1.78,–,1.78,–

Test System,LOEC (log10 uM) [1],LOEC (log10 uM) [2],LOEC (log10 uM) [3],LOEC (log10 uM) [4],other results
IMphg VCAM1 down,–,1.07 ± 0.32,–,1.78,–
KF3CT IL1a down,–,0.573 ± 0.39,–,1.78,–
KF3CT IP10 down,1.78,1.3,1.78,1.3,–
KF3CT MCP1 down,–,1.3,–,1.3,–
KF3CT MIG down,–,1.3,–,1.78,–
KF3CT MMP9 down,1.78,1.3,–,1.3,–
KF3CT PAI1 down,1.3,1.3,–,1.3,–
KF3CT SRB down,–,1.3,–,1.78,–
KF3CT uPA down,–,1.3,–,1.78,–
LPS CD40 down,–,0.845,1.78,1.78,–
LPS CD69 down,–,1.3,1.78,1.78,–
LPS Eselectin down,–,1.3,–,1.78,–
LPS IL8 up,1.78,–,–,–,LOEC (log10 uM) [6]: 1.54 ± 0.34
LPS MCP1 down,–,1.3,–,1.78,–
LPS PGE2 down,1.78,1.3,–,1.78,–
LPS PGE2 up,–,–,1.54 ± 0.34,–,–
LPS SRB down,–,1.3,–,1.78,–
LPS Thrombomodulin up,–,1.3,–,1.31 ± 0.66,–
LPS VCAM1 down,–,1.07 ± 0.32,1.78,1.78,–
MyoF ACTA1 down,–,0.845,–,1.54 ± 0.34,LOEC (log10 uM) [7]: 0.301
MyoF CollagenI down,–,1.3,–,1.3,LOEC (log10 uM) [7]: 0.845
MyoF CollagenIII down,1.78,1.3,–,1.3,LOEC (log10 uM) [7]: 0.845
MyoF CollagenIV up,1.78,–,1.3,1.07 ± 0.32,LOEC (log10 uM) [7]: 0.845
MyoF MMP1 up,–,0.845,–,–,LOEC (log10 uM) [7]: 0.573 ± 0.39
MyoF PAI1 down,–,1.3,–,1.78,–
MyoF SRB down,–,1.3,1.78,1.3,LOEC (log10 uM) [7]: 0.845

Test System,LOEC (log10 uM) [1],LOEC (log10 uM) [2],LOEC (log10 uM) [3],LOEC (log10 uM) [4],other results
MyoF VCAM1 down,–,0.845,–,1.3,LOEC (log10 uM) [7]: 0.573 ± 0.39
SAg CD38 down,–,1.07 ± 0.32,–,1.78,–
SAg CD40 down,–,0.845,1.78,1.78,–
SAg CD69 down,–,0.845,1.78,1.78,–
SAg Eselectin down,–,0.845,1.78,1.78,–
SAg Eselectin up,1.78,–,–,–,–
SAg IL8 down,–,0.845,1.78,1.78,–
SAg MCP1 down,–,0.845,–,1.78,–
SAg PBMCCytotoxicity up,–,–,1.78,–,–
SAg Proliferation down,–,0.301,–,1.78,–
SAg SRB down,1.78,1.3,–,1.78,–
hDFCGF CollagenIII down,–,0.573 ± 0.39,–,0.845,–
hDFCGF IP10 down,–,0.301,1.54 ± 0.34,0.573 ± 0.39,LOEC (log10 uM) [5]: 0.845
hDFCGF ITAC down,–,0.301,1.78,0.573 ± 0.39,LOEC (log10 uM) [5]: 0.845
hDFCGF MCP1 down,–,0.301,–,1.78,–
hDFCGF MCP1 up,–,–,1.78,–,–
hDFCGF MCSF down,–,0.301,–,1.54 ± 0.34,–
hDFCGF MIG down,–,0.301,–,0.573 ± 0.39,–
hDFCGF PAI1 down,–,0.845,–,1.78,–
hDFCGF Proliferation down,–,0.301,1.78,0.845,–
hDFCGF SRB up,–,–,–,–,LOEC (log10 uM) [5]: 0.301
hDFCGF TIMP2 down,–,–,1.78,–,–
hDFCGF VCAM1 down,–,0.301,–,0.801 ± 0.71,LOEC (log10 uM) [5]: 0.845
